Test results from patent publication US20110144188A1, “SALTS OF T[…] N-[…] TRIMEBUTINE” (Antibe Therapeutics Inc., priority 2006, published 2011).

What was measured:
[1] = test system: abdominal pain in patients with functional bowel disorders; conditions: especially IBS, 300 to 600 mg/day; cited from earlier work
[2] = test system: rat model of visceral pain perception; test: Rat model of visceral pain perception (colorectal distension, AWR score and colorectal pressure); assay type: in vivo
Procedure: A rat model of visceral pain perception, a pre-clinical model of irritable bowel syndrome, was used in the following example. Rats (male, Wistar, 200-250 g, obtained from Charles River, Monza, Italy), were housed in plastic cages and maintained under controlled conditions with 12-hours light/dark cycle with lights on at 7.00 AM. Tap water and standard laboratory chow were freely available. Before experiments, rats were individually trained by spending 2-3 hours per day in a plexiglass cage for 2-3 days. It allowed them to adjust to a movement-restriction environment. Food was withheld for 12 hours before colorectal distension (CRD) recording were performed. Experiments were performed in awake rats and were conducted in a blind manner in that the observer was not aware of the identity of drug administered to each animal.
On the testing day, rats were sedated with ether inhalation and a 2 cm long latex balloon was inserted intrarectally 2 cm from the anal verge and fixed at the base of the tail. The balloon was connected via a double-barreled cannula to a pressure transducer to continuously monitoring the rectal pressure by a computer (PowerLab PC, A.D. Instruments, Milford, Mass., USA) and to a syringe for inflation/deflation of the balloon. The rats were then housed in a small cage (20×8×8 cm) on an elevated Plexiglas™ platform and allowed to wake up and adapt for 1 hour. After recovery from sedation, animals underwent the CRD procedure and behavioral responses were tested. The night before the experiments, the balloons were inflated and left overnight so the latex stretched and the balloons became compliant.
CRD of 20 seconds, performed every 5 minutes, was applied in increment of 0.4 ml starting from 0.4 ml up to 1.6 ml water. To achieve an accurate measurement of the colonic parameters and perception, the distensions were repeated twice for each intensity and data for each animal were averaged for analysis. Each animal underwent a double set of CRD. Twenty minutes after the first sequence of CRD (0.4 mL-1.6 ml water), drugs were administered intraperitoneally (i.p.) and a second set of CRD was performed. Behavioral responses during the first and the second set of CRD were assessed and compared.
Behavioral response to CRD was assessed by measuring the abdominal withdrawal reflex (AWR) using a semi-quantitative score (1).
The effects of trimebutine maleate, nitroarginine and trimebutine nitroargininate on colonic compliance and sensitivity were determined using a total of 15 fasting rats. […]
To determine the effect of trimebutine maleate, nitroarginine and trimebutine nitroargininate on colonic smooth muscle, the compliance of the colo-rectum during CRD was obtained from intracolo-rectal volume and pressure and expressed as mL/mmHg. […]

CCC(COC(=O)c1cc(OC)c(OC)c(OC)c1)(c1ccccc1)N(C)C (stereo not drawn) [Trimebutine, 3,4,5-trimethoxybenzoic acid 2-(dimethylamino)-2-phenylbutylester]
treatment of abdominal pain in patients [1]: effective in the treatment of both acute and chronic abdominal pain

NC(=S)c1ccc(C(=O)O)cc1
melting point: 296 to 298 °C (dec.)

CCC(COC(=O)c1cc(OC)c(OC)c(OC)c1)(c1ccccc1)N(C)C.NC(=S)c1ccc(C(=O)O)cc1 (stereo not drawn) [trimebutine thiocarbamoylbenzoate, 3,4,5-trimethoxybenzoic acid 2-(dimethylamino)-2-phenylbutyl ester 4-thiocarbamoyl benzoate]
reducing visceral pain in response to colorectal distension (AWR score) ([2]; rats, dose equimolar to trimebutine maleate 10 mg/kg, vs trimebutine maleate and thiocarbamoylbenzoate alone, FIGS. 5(a), 5(b)): more effective than either trimebutine maleate or thiocarbamoylbenzoate

CCC(COC(=O)c1cc(OC)c(OC)c(OC)c1)(c1ccccc1)N(C)C.N=C(NCCC[C@H](N)C(=O)O)N[N+](=O)[O-] (stereo not drawn) [trimebutine nitroargininate]
reducing visceral pain in response to colorectal distension (AWR score) ([2]; Wistar rats, 16 mg/kg i.p., vs trimebutine maleate 10 mg/kg i.p. and nitroarginine 6 mg/kg, FIGS. 1(a), 2(a), 3(a)): more effective than either trimebutine maleate or nitroarginine
visceral analgesic effects (AWR score) after pretreatment with L-NAME ([2]; rats, 16 mg/kg i.p., L-NAME 25 mg/kg i.v. 10 min before, FIG. 4(a)): largely abolished
visceral analgesic effects (AWR score) after pretreatment with methylene blue ([2]; rats, 16 mg/kg i.p., methylene blue 1 mg/kg i.p. 10 min before, FIG. 4(b)): largely abolished
